Experimental findings from PubChem BioAssay (NCI) are described below.

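Results reflect a 48-hour exposure of cells in 96-well plates to compound at five concentrations. GI50 is the concentration that inhibits growth by half. The concentration for full growth arrest is given as TGI.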

Assay in all cases: NCI tumour cell line growth inhibition, 48 h
Test [1] has as its system SNB-75 CNS.
Test [2] deals with COLO 205 colon.
The subject of test [3] is UACC-62 melanoma.
Test [4] has as its system LOX IMVI melanoma.
Test [5] relates to UACC-257 melanoma.
Test [6] concerns SNB-19 CNS.
The subject of test [7] is U251 CNS.
Test [8] concerns MALME-3M melanoma.
The test system of test [9] is PC-3 prostate.
For test [10], the system named is HOP-62 NSCLC.

For the compound `N#Cc1ccccc1C#C/C=C\C#Cc1ccccc1N`, the GI50 in [1] was 6.13 µM; in test [2], 4.8 µM; in test [3], 3.03 µM; in test [4] it was 4.04 µM; in test [6], 7.17 µM; in test [7] it was 4.16 µM. Also, the GI50 is 2.86 µM in test [8] and 5.99 µM in test [9]. The TGI is more than 25.3 µM in test [1]; more than 100 µM in test [2]; more than 33.6 µM in [3]; more than 35.4 µM in test [4]; more than 22.8 µM in test [5]; more than 100 µM in [6]. Moreover, the TGI in test [7] is more than 42.5 µM; in [8] it was 40.2 µM; in test [9], more than 75.9 µM.

For the compound `CC1=CC(O)C(C(O)(C(F)(F)F)C(F)(F)F)C(C)(C)C1` (configuration not stated), the TGI in [1], in test [10], in test [2], in test [3], in test [4] and in [5] was more than 10 µM throughout. Moreover, the TGI in test [6], in test [7], in [8] and in [9] was more than 10 µM each time.

Consider `O=C1C2Cc3c(n(C(=O)c4ccccc4)c4ccccc34)CC2C(=O)N1c1ccc(Nc2ccc(N3C(=O)C4Cc5c(n(C(=O)c6ccccc6)c6ccccc56)CC4C3=O)cc2)cc1` (configuration not stated), for which the TGI in test [1], in test [10], in test [2], in test [3], in [4] and in test [5] was more than 100 µM each time. Further, the TGI in test [6], in test [7], in test [8] and in test [9] was more than 100 µM each time.

For `Cc1ccc2nc(-c3ccc(NC(=O)c4ccc(N)cc4)c(S(=O)(=O)O)c3)sc2c1`, the TGI in test [1], in test [10], in [2], in test [3], in [4] and in test [5] was more than 100 µM throughout. The TGI in [6], in [7], in [8] and in [9] was more than 100 µM each time.

`N=c1ccc2nc(N)nn(O)c-2c1`: the TGI in test [1], in test [10], in test [2], in test [3], in test [4] and in test [5] was more than 100 µM throughout. In addition, the TGI in test [6], in [7] and in test [9] was more than 100 µM each time.

On to `O=C(Cc1csc2nc(-c3ccc(Cl)cc3)cn12)N/N=C/c1ccccc1O`, for which the GI50 is 4.32 µM in test [1]; 4.67 µM in [10]; 2.93 µM in [2]; 3.42 µM in test [3]; 1.93 µM in test [4]; 4.74 µM in test [5]. The GI50 in test [6] is 12.3 µM; in test [7], 1.77 µM; in test [8] it was 5.56 µM; in test [9], 3.46 µM. Also, the TGI in test [1] is more than 100 µM; in test [10], more than 100 µM; in [2], more than 100 µM; in test [3], 38.9 µM; in [4] it was 36.1 µM; in test [5], more than 100 µM. In addition, the TGI in test [6] was more than 100 µM; in [7], 35.4 µM; in test [8] it was 94.2 µM; in test [9] it was more than 100 µM.

With `O=C(CC(c1ccccc1)C1C(=O)NC(=S)NC1=O)c1ccc([N+](=O)[O-])cc1` (configuration not stated), the TGI in test [1], in test [10], in test [2], in [3], in test [4] and in [5] was more than 100 µM each time. The TGI in test [6], in test [7], in test [8] and in test [9] was more than 100 µM in each case.

For the compound `Nc1nnc(CCC(=O)Nc2cc(Cl)ccc2Cl)n1N`, the TGI in [1], in test [10], in test [2], in test [3], in test [4] and in test [5] was more than 100 µM each time. In addition, the TGI in test [6], in [7] and in test [8] was more than 100 µM throughout.

`CC1(C(=O)O)C[C@](C)(C(=O)OCc2ccccc2)C[C@](C)(C(=O)OCc2ccccc2)C1` (some centres not stated): the TGI was 79.7 µM in [1]; more than 100 µM in test [10]; 33.8 µM in [2]; 45.4 µM in [3]; 92.4 µM in test [4]; more than 100 µM in test [5]. The TGI in [6], in test [8] and in [9] was more than 100 µM each time.

For `Cn1c2[n+](c3nc(N)[nH]c(=O)c31)C1OC(C2)C(O)C1O` (configuration not stated), the TGI in test [1], in [10], in [2], in test [3], in test [4] and in test [5] was more than 100 µM in each case. In addition, the TGI in test [6], in test [7] and in test [8] was more than 100 µM each time.

For the compound `O=C1/C(=C/c2[nH]ncc2-c2ccc(Cl)cc2)C(=O)N(c2ccccc2)C1c1ccccc1` (configuration not stated), the TGI in test [10] is 63.2 µM; in test [2], 32.8 µM; in test [3] it was 27.8 µM; in test [4], 32.4 µM; in test [5], 64.7 µM; in test [6] it was more than 100 µM. Further, the values for the TGI in [7], in test [8] and in test [9] were 50.2 µM, 62.5 µM and more than 100 µM, respectively.
